Test results from patent US8895744B2, “Alfa-carboline inhibitors of NPM-ALK, RET, and Bcr-Abl” (Universita' Degli Studi di Milano-Bicocca, priority 2008, dated 2014).

Assays:
[1] = molecular target: T1, BaF3 cells transformed with the oncogenic fusion protein NPM/ALK (Homo sapiens, UniProt Q9UM73); test: Tritiated thymidine uptake cell proliferation assay, BaF3 NPM/ALK; type: cell-based; conditions: 3[H]-thymidine uptake, 72 h; read-out: BaF NPM/ALK IC50
T1 construct: fused on or other part: P06748 (Nucleophosmin)
T1 sequence (Q9UM73 whole entry, change not shown, the tested form may be a part): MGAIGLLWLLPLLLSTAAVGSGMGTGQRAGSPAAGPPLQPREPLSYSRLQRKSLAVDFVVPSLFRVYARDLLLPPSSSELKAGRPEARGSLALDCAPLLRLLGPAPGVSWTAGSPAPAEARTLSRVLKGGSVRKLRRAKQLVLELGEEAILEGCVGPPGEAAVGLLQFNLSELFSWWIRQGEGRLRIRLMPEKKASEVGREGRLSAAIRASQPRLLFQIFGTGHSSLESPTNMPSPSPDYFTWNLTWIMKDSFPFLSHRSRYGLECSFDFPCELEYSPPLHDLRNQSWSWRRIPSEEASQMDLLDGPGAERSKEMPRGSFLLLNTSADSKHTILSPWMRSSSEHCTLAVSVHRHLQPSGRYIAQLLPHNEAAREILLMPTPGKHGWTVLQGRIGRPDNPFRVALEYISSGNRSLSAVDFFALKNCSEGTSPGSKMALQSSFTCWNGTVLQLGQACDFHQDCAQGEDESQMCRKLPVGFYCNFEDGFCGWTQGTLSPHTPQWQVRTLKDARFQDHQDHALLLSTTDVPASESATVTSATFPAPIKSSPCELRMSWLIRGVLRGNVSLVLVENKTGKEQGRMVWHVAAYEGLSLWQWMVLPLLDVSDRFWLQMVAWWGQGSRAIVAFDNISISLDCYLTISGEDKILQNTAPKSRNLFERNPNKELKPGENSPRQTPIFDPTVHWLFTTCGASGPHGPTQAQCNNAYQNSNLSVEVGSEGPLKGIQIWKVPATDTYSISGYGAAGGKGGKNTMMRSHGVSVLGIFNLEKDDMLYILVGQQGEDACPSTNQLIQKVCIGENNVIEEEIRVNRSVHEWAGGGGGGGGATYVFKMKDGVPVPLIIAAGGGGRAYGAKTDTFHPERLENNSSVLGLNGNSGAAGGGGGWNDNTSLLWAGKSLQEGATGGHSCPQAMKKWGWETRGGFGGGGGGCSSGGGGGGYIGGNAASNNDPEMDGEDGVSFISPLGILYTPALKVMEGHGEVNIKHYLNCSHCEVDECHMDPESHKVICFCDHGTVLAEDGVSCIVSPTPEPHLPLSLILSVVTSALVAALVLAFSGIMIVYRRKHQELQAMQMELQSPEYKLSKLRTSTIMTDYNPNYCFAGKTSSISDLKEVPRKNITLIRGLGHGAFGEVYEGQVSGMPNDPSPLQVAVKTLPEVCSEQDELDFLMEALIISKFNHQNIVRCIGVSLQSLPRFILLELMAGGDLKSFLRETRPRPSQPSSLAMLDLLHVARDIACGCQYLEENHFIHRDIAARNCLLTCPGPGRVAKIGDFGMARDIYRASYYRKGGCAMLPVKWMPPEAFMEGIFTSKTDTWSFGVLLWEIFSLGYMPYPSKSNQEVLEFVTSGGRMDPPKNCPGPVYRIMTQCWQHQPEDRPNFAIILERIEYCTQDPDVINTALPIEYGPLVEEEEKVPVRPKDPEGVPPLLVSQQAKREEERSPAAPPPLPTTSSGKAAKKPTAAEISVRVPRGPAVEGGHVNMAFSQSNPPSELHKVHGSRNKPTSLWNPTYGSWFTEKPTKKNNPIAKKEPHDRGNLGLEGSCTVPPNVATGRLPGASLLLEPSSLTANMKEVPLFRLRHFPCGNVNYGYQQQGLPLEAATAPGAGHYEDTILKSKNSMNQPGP
Protocol: (§1) Inhibition of the proliferation of NPM/ALK positive cells
(§2) Method: Tritiated Thymidine Uptake Cell Proliferation Assay
(§3) The following procedure was used with parent untransformed BaF3 cells, BaF3 cells transformed with the oncogenic fusion protein NPM/ALK, NPM/ALK positive SUDHL-1 cells, ALK-negative U937 cells, NPM/ALK positive KARPAS-299 cells. The parent untransformed BaF3 cells and Alk-negative U937 cells are used as controls. Cells were seeded in U-bottomed 96-well plates at 10 000 cells/well in a volume of 100 μL in supplemented medium. In the case of the parent untransformed BaF3 cells, the medium was supplemented with IL-3. Serial dilutions of inhibitors were added to the appropriate wells and volumes adjusted to 200 μL. Controls were treated with the equivalent volume of vehicle, DMSO, alone. Plates were incubated at 37° C. for 72 h. ^3[H]-thymidine (1 μCi/well) was added for the last 16 h of incubation. Cells were harvested on to paper filters and ^3[H]-thymidine incorporation was measured using a β scintillation counter (1430 MicroBeta, Wallac, Turku, Finland). The 50% inhibitory concentration (IC50) was defined as the concentration of inhibitor, expressed in micromolar, that gave a 50% decrease in ^3[H]-thymidine uptake compared with controls.

Recombinant Ret protein = molecular target: T2, Recombinant Ret protein (Homo sapiens, UniProt P07949); test: RET kinase inhibitory activity, ELISA-based in vitro kinase assay; type: biochemical; conditions: purified Ret, 0.3 mM ATP
T2 construct: made in house; host or cells: Sf9 cells (baculovirus)
T2 sequence (P07949 29-1114): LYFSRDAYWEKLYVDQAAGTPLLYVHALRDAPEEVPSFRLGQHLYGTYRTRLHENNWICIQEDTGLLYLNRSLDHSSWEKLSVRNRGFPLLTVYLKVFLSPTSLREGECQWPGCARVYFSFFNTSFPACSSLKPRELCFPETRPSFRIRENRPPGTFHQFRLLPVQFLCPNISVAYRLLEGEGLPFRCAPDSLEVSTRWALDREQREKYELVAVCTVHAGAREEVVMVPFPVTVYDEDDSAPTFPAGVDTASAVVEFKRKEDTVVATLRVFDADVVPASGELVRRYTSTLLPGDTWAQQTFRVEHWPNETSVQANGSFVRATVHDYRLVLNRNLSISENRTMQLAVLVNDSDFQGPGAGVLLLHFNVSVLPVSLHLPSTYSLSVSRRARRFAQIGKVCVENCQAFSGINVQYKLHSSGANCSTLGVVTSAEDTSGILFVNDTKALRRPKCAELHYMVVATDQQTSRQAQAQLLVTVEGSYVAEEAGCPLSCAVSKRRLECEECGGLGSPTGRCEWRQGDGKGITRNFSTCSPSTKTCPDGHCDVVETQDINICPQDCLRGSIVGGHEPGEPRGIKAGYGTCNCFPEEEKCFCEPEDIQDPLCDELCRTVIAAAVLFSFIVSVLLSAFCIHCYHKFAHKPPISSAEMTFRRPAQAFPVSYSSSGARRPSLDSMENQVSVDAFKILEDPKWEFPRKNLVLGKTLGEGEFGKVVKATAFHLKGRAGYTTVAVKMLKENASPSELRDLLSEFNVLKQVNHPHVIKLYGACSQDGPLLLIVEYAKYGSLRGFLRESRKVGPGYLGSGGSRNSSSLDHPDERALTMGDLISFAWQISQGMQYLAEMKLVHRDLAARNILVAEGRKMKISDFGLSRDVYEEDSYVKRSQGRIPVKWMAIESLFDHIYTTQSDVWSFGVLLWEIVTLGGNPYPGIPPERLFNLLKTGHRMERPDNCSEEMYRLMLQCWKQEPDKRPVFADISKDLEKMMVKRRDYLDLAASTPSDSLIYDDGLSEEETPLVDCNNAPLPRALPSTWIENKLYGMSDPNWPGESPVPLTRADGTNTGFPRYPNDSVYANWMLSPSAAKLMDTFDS
Protocol: (§4) Recombinant ALK kinase was expressed in Sf9 insect cells using the pBlueBacHis2C baculovirus vector system and purified using an anion exchange Fast Flow Q-sepharose column (Amersham-Pharmacia Biotech) followed by HiTrap™-nickel affinity column (Amersham-Pharmacia Biotech). Purified ALK protein was used to screen inhibitors in the ELISA-based kinase assay. A Nunc Immuno 96 well plate was incubated overnight at 37° C. with coating solution (125 μL/well) containing ALK peptide substrate ([…]) (SEQ ID NO: 1) at various concentrations in PBS. Wells were then washed with 200 μL of wash buffer (PBS-Tween 0.05%) and left to dry for at least 2 h at 37° C. The kinase reaction was performed in the presence of 50 mM Tris pH 7.5, 5 mM MnCl2, 5 mM MgCl2, 0.3 mM ATP and purified rALK in a total volume of 100 μL/well at 30° C. for 15 min. For inhibitor testing the reaction mix was preincubated with the inhibitor or solvent control for 10 min at room temperature before transferring to the ELISA plate. After the reaction wells were washed 5 times with 200 μL of wash buffer. Phosphorylated peptide was detected using 100 μL/well of a mouse monoclonal anti-phosphotyrosine antibody (clone 4G10 Upstate Biotech Ltd) diluted 1:2000 in PBS+4% BSA. After 30 min incubation at room temperature the antibody was removed and wells were washed as described above. 100 μL of a secondary antibody (anti-mouse IgG, Horseradish Peroxidase linked whole antibody, Amersham Pharmacia Biotech) diluted 1:1000 in PBS+4% BSA was added to each well and the plate was incubated again for 30 min at room temperature before washing as above. The plate was developed using 100 μL/well TMB Substrate Solution (Endogen) and the reaction was stopped by adding an equiv.ual volume of H2SO4 0.36 M. Finally, the absorbance was read at 450 nm using an Ultrospec® 300 spectrophotometer (Amersham-Pharmacia Biotech). The concentration of the test solution showing 50% inhibition as compared with the control was expressed as IC50 (μM).
38. RET Kinase Inhibitory Activity
(§5) Method: ELISA-Based In Vitro Kinase Assay
(§6) Recombinant Ret protein was expressed in Sf9 cells using the pBlueBacHis2C baculovirus expression vector. Ret was purified using an anion exchange Fast Flow Q-sepharose column (Amersham-Pharmacia Biotech) followed by HiTrap™-nickel affinity column (Amersham-Pharmacia Biotech). Purified Ret was used in the ELISA-based kinase assay to screen inhibitors as described above. The kinase reaction was performed in the presence of 50 mM Tris pH 7.5, 1 mM MnCl2, 5 mM MgCl2, 0.3 mM ATP, peptide substrate ([…]) (SEQ ID NO: 1) and purified Ret. The concentration of the test solution showing 50% inhibition as compared with the control was expressed as IC50 (μM).

[2] = molecular target: T3, Recombinant Abl T315I protein (Homo sapiens, UniProt P00519, T315I); test: Abl T315I mutant kinase inhibitory activity, ELISA-based in vitro kinase assay; type: biochemical; conditions: purified Abl T315I, 0.3 mM ATP
T3 construct: made in house; host or cells: Sf9 cells (baculovirus)
Protocol: as §4
37. Abl T315I Mutant Kinase Inhibitory Activity
as §5
as §6, with “Abl T315I” for “Ret”, “Abl T315I.” for “Ret.”

[3] = tested on: parent untransformed BaF3 cells; test: Tritiated thymidine uptake cell proliferation assay, parental BaF3 (control); type: cell-based; conditions: Mus musculus, 3[H]-thymidine uptake, 72 h, medium with IL-3, read-out: BaF parental IC50
Protocol: as §2, §3
as §3, with “protein bcr-abl, Abl-negative” for “protein NPM/ALK, NPM/ALK positive SUDHL-1 cells, ALK-negative”, “cells, or Bcr-abl” for “cells, NPM/ALK”, “positive LAMA-84” for “positive KARPAS-299”, “and Abl-negative” for “and Alk-negative”, “in ^3H-thymidine” for “in ^3[H]-thymidine”
as §3, with “RET-PTC2, or RET-negative 11937” for “NPM/ALK, NPM/ALK positive SUDHL-1 cells, ALK-negative U937 cells, NPM/ALK positive KARPAS-299”, “RET-negative” for “Alk-negative”

Recombinant ALK kinase = molecular target: T4, Recombinant ALK kinase (Homo sapiens, UniProt Q9UM73); test: ALK kinase inhibitory activity, ELISA-based in vitro kinase assay; type: biochemical; conditions: purified rALK, 0.3 mM ATP, read-out: ALK IC50
T4 construct: made in house; host or cells: Sf9 insect cells (baculovirus)
T4 sequence (Q9UM73 19-1620): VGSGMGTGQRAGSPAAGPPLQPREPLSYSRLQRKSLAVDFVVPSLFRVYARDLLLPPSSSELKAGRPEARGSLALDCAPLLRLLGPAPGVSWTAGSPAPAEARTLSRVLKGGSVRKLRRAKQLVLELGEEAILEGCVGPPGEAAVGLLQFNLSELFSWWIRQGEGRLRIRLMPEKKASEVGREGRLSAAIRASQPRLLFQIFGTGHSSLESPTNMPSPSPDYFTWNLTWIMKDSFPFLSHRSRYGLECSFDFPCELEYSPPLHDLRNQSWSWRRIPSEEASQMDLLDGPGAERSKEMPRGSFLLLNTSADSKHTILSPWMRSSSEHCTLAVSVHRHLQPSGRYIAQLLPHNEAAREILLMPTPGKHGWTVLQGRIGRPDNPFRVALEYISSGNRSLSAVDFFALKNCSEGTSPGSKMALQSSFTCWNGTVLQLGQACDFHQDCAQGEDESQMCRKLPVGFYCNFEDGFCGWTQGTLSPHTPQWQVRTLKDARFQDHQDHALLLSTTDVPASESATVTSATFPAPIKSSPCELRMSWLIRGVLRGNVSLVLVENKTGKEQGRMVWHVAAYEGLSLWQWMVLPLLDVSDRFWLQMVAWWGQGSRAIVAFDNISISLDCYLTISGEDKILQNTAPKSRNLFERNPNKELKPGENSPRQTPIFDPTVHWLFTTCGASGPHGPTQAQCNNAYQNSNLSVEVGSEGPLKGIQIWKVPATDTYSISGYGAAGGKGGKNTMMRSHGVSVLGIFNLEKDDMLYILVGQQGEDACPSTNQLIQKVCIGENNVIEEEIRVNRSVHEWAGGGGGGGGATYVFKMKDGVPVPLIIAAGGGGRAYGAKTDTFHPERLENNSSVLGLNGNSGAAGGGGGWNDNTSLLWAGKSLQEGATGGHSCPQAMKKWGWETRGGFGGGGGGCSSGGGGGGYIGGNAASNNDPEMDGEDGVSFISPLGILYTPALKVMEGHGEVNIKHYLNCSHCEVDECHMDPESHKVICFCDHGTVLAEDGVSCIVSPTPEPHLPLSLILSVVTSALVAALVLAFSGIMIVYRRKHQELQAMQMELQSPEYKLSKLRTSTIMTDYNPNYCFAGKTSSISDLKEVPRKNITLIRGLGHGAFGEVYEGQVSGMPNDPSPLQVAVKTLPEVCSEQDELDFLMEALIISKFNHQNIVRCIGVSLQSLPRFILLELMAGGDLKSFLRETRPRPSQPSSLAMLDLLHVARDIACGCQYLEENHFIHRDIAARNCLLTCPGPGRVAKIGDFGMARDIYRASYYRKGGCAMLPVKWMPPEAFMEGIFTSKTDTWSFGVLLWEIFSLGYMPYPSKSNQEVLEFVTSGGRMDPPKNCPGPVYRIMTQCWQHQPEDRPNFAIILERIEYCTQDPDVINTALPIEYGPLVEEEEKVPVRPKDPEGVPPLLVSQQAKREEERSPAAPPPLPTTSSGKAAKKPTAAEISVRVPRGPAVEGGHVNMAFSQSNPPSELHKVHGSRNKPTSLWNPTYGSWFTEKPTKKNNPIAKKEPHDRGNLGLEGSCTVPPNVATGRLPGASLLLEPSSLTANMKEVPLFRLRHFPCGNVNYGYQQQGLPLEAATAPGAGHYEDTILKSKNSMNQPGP
Protocol: 36. Alk Kinase Inhibitory Activity
as §5, §4

[4] = tested on: NPM/ALK positive SUDHL-1 cells; test: Tritiated thymidine uptake cell proliferation assay, SUDHL-1; type: cell-based; conditions: 3[H]-thymidine uptake, 72 h
Protocol: as §1, §2, §3

Structure (SMILES) | GI50 [1] | IC50 (Recombinant Ret protein) | IC50 [2] | IC50 [3] | IC50 (Recombinant ALK kinase) | IC50 [4] | melting point
O=C(CSCCOc1ccccc1)c1ccc2[nH]c3ncc(Cl)cc3c2c1 [R280, 1-(3-Chloro-9H-pyrido[2,3-b]indol-6-yl)-2-(2-phenoxyethylsulfanyl)ethanone] | > 50 µM | 3.6 µM | 33 µM | 37 µM | – | – | –
C(=C\c1cnc2[nH]c3ccc(-c4ccc(N5CCOCC5)cn4)cc3c2c1)/c1ccccc1 [R307, 6-(5-morpholin-4-yl-pyridin-2-yl)-3-(2′-phenylethenyl)-9H-pyrido[2,3-b]indole] | 40 µM | > 100 µM | 3.1 ± 0.1 µM | > 100 µM | 0.5 ± 0.1 µM | – | –
O=C(CSc1nc2ccccc2[nH]1)c1ccc2[nH]c3ncc(Cl)cc3c2c1 [R274, 2-(1H-Benzoimidazol-2-ylsulfanyl)-1-(3-chloro-9H-pyrido[2,3-b]indol-6-yl)ethanone] | 1 µM | 14 µM | 19 µM | 0.9 µM | – | 0.6 µM | –
O=C(CSC1=NCCS1)c1ccc2[nH]c3ncc(Cl)cc3c2c1 [R282, 1-(3-chloro-9H-pyrido[2,3-b]indol-6-yl)-2-(4,5-dihydrothiazol-2-ylsulfanyl)éthanone] | 14 µM | 9.5 µM | 36 µM | 32 µM | – | 0.7 µM | –
O=C(CSc1cccc(Br)c1)c1ccc2[nH]c3ncc(Cl)cc3c2c1 [R279, 2-(3-Bromophenylsulfanyl)-1-(3-chloro-9H-pyrido[2,3-b]indol-6-yl)ethanone] | > 50 µM | 3.6 µM | > 100 µM | > 50 µM | – | – | –
CCN(CC)CCSCC(=O)c1ccc2[nH]c3ncc(Cl)cc3c2c1 [R283, 1-(3-Chloro-9H-pyrido[2,3-b]indol-6-yl)-2-(N,N-diethylaminoethylsulfanyl)ethanone] | 0.5 ± 0.2 µM | 5.7 µM | 48 µM | 3.6 ± 1.8 µM | – | 0.2 ± 0.02 µM | –
O=Cc1ccc2[nH]c3ncc(Cl)cc3c2c1 [R267] | – | 34 ± 27 µM | 20 ± 0.67 µM | 17 µM | – | 9.4 µM | –
O=C(CSc1ccccn1)c1ccc2[nH]c3ncc(Cl)cc3c2c1 [R272, 1-(3-Chloro-9H-pyrido[2,3-b]indol-6-yl)-2-(pyridin-2-ylsulfanyl)ethanone] | 2.5 µM | 19 µM | 41 µM | 2 µM | – | > 25 µM | –
CN(C)CCSCC(=O)c1ccc2[nH]c3ncc(Cl)cc3c2c1 [R284, 1-(3-Chloro-9H-pyrido[2,3-b]indol-6-yl)-2-(2,2-dimethylaminoethylsulfanyl)ethanone] | – | 41 µM | > 100 µM | – | 36 ± 14 µM | – | –
c1coc(-c2ccnc3[nH]c4ccccc4c23)c1 [R327, 4-(furan-2-yl)-9H-pyrido[2,3-b]indole] | 26 µM | – | – | > 100 µM | – | – | > 220 °C
O=C(CSc1nc2ccccc2s1)c1ccc2[nH]c3ncc(Cl)cc3c2c1 [R273, 2-(Benzothiazol-2-ylsulfanyl)-1-(3-chloro-9H-pyrido[2,3-b]indol-6-yl)ethanone] | 19 µM | 2 µM | 4.4 µM | 14 µM | – | > 25 µM | –
C(=C\c1ccc2c(n1)[nH]c1ccccc12)/c1ccccc1 [R300, 2-(2′-phenylethenyl)-9H-pyrido[2,3-b]indole] | 80 µM | 4.8 µM | > 100 µM | > 100 µM | – | > 100 µM | –
O=[N+]([O-])c1cccc(-c2ccnc3[nH]c4ccccc4c23)c1 [R331, 4-(3-nitrophenyl)-9H-pyrido[2,3-b]indole] | 40 µM | – | – | > 100 µM | > 100 µM | – | > 220 °C
O=c1[nH]c(-c2ccc3[nH]c4ncccc4c3c2)cs1 [R221, 4-(9H-pyrido[2,3-b]indol-6-yl)thiazol-2(3H)-one] | – | 82 ± 3.2 µM | 53 ± 16 µM | – | 19 ± 1.8 µM | – | –
c1coc(-c2ccc3c(n2)[nH]c2ccccc23)c1 [R326, 2-(furan-2-yl)-9H-pyrido[2,3-b]indole] | 19 µM | – | – | 8.8 µM | – | – | 208 to 210 °C
Oc1cnc2[nH]c3ccc(CCc4ccccc4)cc3c2c1 [R276] | > 25 µM | 1 µM | – | > 25 µM | 0.5 ± 0.1 µM | – | –
COc1ccc(-c2ccnc3[nH]c4ccccc4c23)cc1 [R309, 4-(4-methoxyphenyl)-9H-pyrido[2,3-b]indole] | 25 µM | – | 1.6 µM | 15 µM | 4 ± 0.2 µM | – | 208 to 210 °C
